Values belong to the molecule of their own block, whether it stands above or below them.
How the values were obtained:
M-07e cells = assay: M-07e cellular assay (SCF-mediated cell proliferation); type: cell-based; details: Homo sapiens, 72 hours, CellTiter Glo
Method in brief: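 CellTiter Glo luminescence after 72 h compound exposure in SCF (EC90)-stimulated M-07e cells expressing endogenous human c-KIT.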

[1] = target: Recombinant human c-KIT kinase (Homo sapiens (Human), UniProt P10721); assay: c-KIT kinase chemiluminescence assay (ADP-Glo); type: biochemical; details: ATP 50 μM
Method in brief: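 ADP formed by c-KIT on polyEY over 2 h at RT (after 30 min enzyme preincubation; Tris pH 7.5, MgCl2, BSA, DTT buffer) was detected by ADP-Glo luminescence. IC50 and Hill slope were fitted to control-normalized activity across compound concentrations.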

Sequence of Recombinant human c-KIT kinase (P10721 26-976): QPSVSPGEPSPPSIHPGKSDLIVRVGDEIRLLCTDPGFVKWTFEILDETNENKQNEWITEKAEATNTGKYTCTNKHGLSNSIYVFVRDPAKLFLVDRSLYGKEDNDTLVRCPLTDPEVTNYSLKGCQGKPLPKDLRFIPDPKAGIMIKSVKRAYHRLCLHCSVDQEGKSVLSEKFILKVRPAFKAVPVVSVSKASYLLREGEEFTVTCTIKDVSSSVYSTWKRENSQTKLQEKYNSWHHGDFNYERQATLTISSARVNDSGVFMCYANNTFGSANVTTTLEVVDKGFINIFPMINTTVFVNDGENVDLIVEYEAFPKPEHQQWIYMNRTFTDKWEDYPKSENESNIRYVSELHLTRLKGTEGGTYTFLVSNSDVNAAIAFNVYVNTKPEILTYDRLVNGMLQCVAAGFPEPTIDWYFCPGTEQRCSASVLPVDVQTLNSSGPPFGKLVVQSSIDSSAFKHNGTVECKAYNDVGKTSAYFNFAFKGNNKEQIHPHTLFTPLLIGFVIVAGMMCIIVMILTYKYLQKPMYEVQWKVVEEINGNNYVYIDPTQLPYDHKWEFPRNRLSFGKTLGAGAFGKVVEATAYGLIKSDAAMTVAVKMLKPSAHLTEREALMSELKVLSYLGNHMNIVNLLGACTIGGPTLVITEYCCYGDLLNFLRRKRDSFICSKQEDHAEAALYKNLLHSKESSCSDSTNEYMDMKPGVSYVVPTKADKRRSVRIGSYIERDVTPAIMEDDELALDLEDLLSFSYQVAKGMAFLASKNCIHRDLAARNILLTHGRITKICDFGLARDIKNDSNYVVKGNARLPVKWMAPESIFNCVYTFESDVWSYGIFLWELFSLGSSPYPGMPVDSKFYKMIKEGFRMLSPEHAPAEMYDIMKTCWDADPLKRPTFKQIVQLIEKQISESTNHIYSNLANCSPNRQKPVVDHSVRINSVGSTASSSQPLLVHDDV

SMILES: CC(=O)Nc1nc(C)c(-c2ccn3ncc(C(=O)Nc4cc(-c5noc([C@H]6C[C@@H]6F)n5)ccc4C)c3c2)c(C)n1 [Example 171-31]
EC50 (M-07e cells): < 0.1 µM
IC50 [1]: 0.1 to 1 µM

SMILES: Cc1ccc(-c2noc([C@H]3C[C@@H]3F)n2)cc1NC(=O)c1cnn2ccc(N3CC4(CCN(CC(F)(F)F)C4)C3)cc12 [Example 188]
EC50 (M-07e cells): 0.1 to 1 µM
IC50 [1]: 0.1 to 1 µM

SMILES: Cc1ccc(-c2noc([C@H]3C[C@@H]3F)n2)cc1NC(=O)c1cnn2ccc(N3C4COCC3C4)cc12 [Example 189]
EC50 (M-07e cells): < 0.1 µM
IC50 [1]: < 0.1 µM

SMILES: Cc1ccc(-c2noc([C@H]3C[C@@H]3F)n2)cc1NC(=O)c1cnn2ccc(N3CCN(C(=O)OC(C)(C)C)C[C@H]3C)cc12 [Example 190]
EC50 (M-07e cells): 0.1 to 1 µM
IC50 [1]: 0.1 to 1 µM

SMILES: Cc1ccc(-c2noc([C@H]3C[C@@H]3F)n2)cc1NC(=O)c1cnn2ccc(N3CC[C@@H](NC(=O)OC(C)(C)C)C3)cc12 [Example 192]
EC50 (M-07e cells): 0.1 to 1 µM
IC50 [1]: 0.1 to 1 µM

SMILES: Cc1ccc(-c2noc([C@H]3C[C@@H]3F)n2)cc1NC(=O)c1cnn2ccc(N3CC[C@H](NC(=O)OC(C)(C)C)C3)cc12 [Example 193]
EC50 (M-07e cells): 0.1 to 1 µM
IC50 [1]: 0.1 to 1 µM

SMILES: Cc1ccc(-c2noc([C@H]3C[C@@H]3F)n2)cc1NC(=O)c1cnn2ccc(N3CC4CC(C3)O4)cc12 [Example 194]
EC50 (M-07e cells): < 0.1 µM
IC50 [1]: < 0.1 µM

SMILES: Cc1ccc(-c2noc([C@H]3C[C@@H]3F)n2)cc1NC(=O)c1cnn2ccc(N3CC[C@@H](N)C3)cc12 [Example 197]
EC50 (M-07e cells): < 0.1 µM
IC50 [1]: 0.1 to 1 µM

SMILES: Cc1ccc(-c2noc([C@H]3C[C@@H]3F)n2)cc1NC(=O)c1cnn2ccc(N3CC4(CN(C)C4)C3)cc12 [Example 202]
EC50 (M-07e cells): 0.1 to 1 µM
IC50 [1]: 0.1 to 1 µM

SMILES: Cc1ccc(-c2noc([C@H]3C[C@@H]3F)n2)cc1NC(=O)c1cnn2ccc(N3CC[C@H](N(C)C(=O)OC(C)(C)C)C3)cc12 [Example 203]
EC50 (M-07e cells): 0.1 to 1 µM
IC50 [1]: < 0.1 µM

SMILES: Cc1ccc(-c2noc([C@H]3C[C@@H]3F)n2)cc1NC(=O)c1cnn2ccc(N3C4CCC3CC(O)C4)cc12 (some centres unmarked) [Example 204]
EC50 (M-07e cells): < 0.1 µM
IC50 [1]: < 0.1 µM

SMILES: CN[C@H]1CCN(c2ccn3ncc(C(=O)Nc4cc(-c5noc([C@H]6C[C@@H]6F)n5)ccc4C)c3c2)C1 [Example 205]
EC50 (M-07e cells): 0.1 to 1 µM
IC50 [1]: < 0.1 µM

SMILES: Cc1ccc(-c2noc([C@H]3C[C@@H]3F)n2)cc1NC(=O)c1cnn2cc(F)c(N3CC4(COC4)C3)cc12 [Example 206]
EC50 (M-07e cells): 0.1 to 1 µM
IC50 [1]: 0.1 to 1 µM

SMILES: Cc1ccc(-c2noc([C@H]3C[C@@H]3F)n2)cc1NC(=O)c1cnn2ccc(N3CC4(CN(C(=O)OC(C)(C)C)C4)C3)cc12 [Example 207]
EC50 (M-07e cells): 0.1 to 1 µM
IC50 [1]: < 0.1 µM

SMILES: Cc1ccc(-c2noc([C@H]3C[C@@H]3F)n2)cc1NC(=O)c1cnn2ccc(N3CC(C(=O)OC(C)(C)C)C3)cc12 [Example 208]
EC50 (M-07e cells): 0.1 to 1 µM
IC50 [1]: 0.1 to 1 µM

SMILES: Cc1ccc(-c2noc([C@H]3C[C@@H]3F)n2)cc1NC(=O)c1cnn2ccc(N3CC[C@H]3C(=O)OC(C)(C)C)cc12 [Example 209]
EC50 (M-07e cells): 0.1 to 1 µM
IC50 [1]: 0.1 to 1 µM

SMILES: Cc1ccc(-c2noc([C@H]3C[C@@H]3F)n2)cc1NC(=O)c1cnn2ccc(N3CC4CCC3CN4C(=O)OC(C)(C)C)cc12 (some centres unmarked) [Example 210]
EC50 (M-07e cells): 0.1 to 1 µM
IC50 [1]: 0.1 to 1 µM

SMILES: Cc1ccc(-c2noc([C@H]3C[C@@H]3F)n2)cc1NC(=O)c1cnn2ccc(N3CC4(CNC4)C3)cc12 [Example 211]
EC50 (M-07e cells): 0.1 to 1 µM
IC50 [1]: < 0.1 µM

SMILES: Cc1ccc(-c2noc([C@H]3C[C@@H]3F)n2)cc1NC(=O)c1cnn2ccc(N3CC4(CN(CC(F)F)C4)C3)cc12 [Example 212]
EC50 (M-07e cells): < 0.1 µM
IC50 [1]: < 0.1 µM

SMILES: Cc1ccc(-c2noc([C@H]3C[C@@H]3F)n2)cc1NC(=O)c1cnn2ccc(N3CC4(C3)CC(F)(F)C4)cc12 [Example 213]
EC50 (M-07e cells): < 0.1 µM
IC50 [1]: < 0.1 µM

SMILES: Cc1ccc(-c2noc([C@H]3C[C@@H]3F)n2)cc1NC(=O)c1cnn2ccc(N3CCO[C@H](C)C3)cc12 [Example 214]
EC50 (M-07e cells): < 0.1 µM
IC50 [1]: < 0.1 µM

More lines, main results first:

IC50 [1]: < 0.1 µM
SMILES: Cc1ccc(-c2noc([C@H]3C[C@@H]3F)n2)cc1NC(=O)c1cnn2ccc(-c3ccc(N)nc3C)cc12 [Example 171-29]
EC50 (M-07e cells): < 0.1 µM

IC50 [1]: < 0.1 µM
SMILES: Cc1cnc(-c2ccn3ncc(C(=O)Nc4cc(-c5noc([C@H]6C[C@@H]6F)n5)ccc4C)c3c2)c(C)n1 [Example 171-30]
EC50 (M-07e cells): < 0.1 µM

IC50 [1]: < 0.1 µM
SMILES: Cc1nccc(-c2ccn3ncc(C(=O)Nc4cc(-c5noc([C@H]6C[C@@H]6F)n5)ccc4C)c3c2)n1 [Example 171]
EC50 (M-07e cells): < 0.1 µM

IC50 [1]: < 0.1 µM
SMILES: Cc1ccc(-c2noc([C@H]3C[C@@H]3F)n2)cc1NC(=O)c1cnn2ccc(N3CCC4(COC4)C3)cc12 [Example 173]
EC50 (M-07e cells): < 0.1 µM

IC50 [1]: < 0.1 µM
SMILES: Cc1ccc(-c2noc([C@H]3C[C@@H]3F)n2)cc1NC(=O)c1cnn2ccc(N3C[C@@H](CS(C)(=O)=O)[C@@H]3C)cc12 [Example 174]
EC50 (M-07e cells): < 0.1 µM

IC50 [1]: < 0.1 µM
SMILES: Cc1ccc(-c2noc([C@H]3C[C@@H]3F)n2)cc1NC(=O)c1cnn2ccc(N3C[C@@H](CS(C)(=O)=O)[C@H]3C)cc12 [Example 175]
EC50 (M-07e cells): < 0.1 µM

IC50 [1]: < 0.1 µM
SMILES: Cc1ccc(-c2noc([C@H]3C[C@@H]3F)n2)cc1NC(=O)c1cnn2ccc(N3CCC34COC4)cc12 [Example 176]
EC50 (M-07e cells): < 0.1 µM

IC50 [1]: < 0.1 µM
SMILES: Cc1ccc(-c2noc([C@H]3C[C@@H]3F)n2)cc1NC(=O)c1cnn2ccc(N3CC4(CN(CC(F)(F)F)C4)C3)cc12 [Example 177]
EC50 (M-07e cells): < 0.1 µM

IC50 [1]: < 0.1 µM
SMILES: Cc1ccc(-c2noc([C@H]3C[C@@H]3F)n2)cc1NC(=O)c1cnn2ccc(N3CC4(CNC(=O)C4)C3)cc12 [Example 178]
EC50 (M-07e cells): < 0.1 µM

IC50 [1]: < 0.1 µM
SMILES: Cc1ccc(-c2noc([C@H]3C[C@@H]3F)n2)cc1NC(=O)c1cnn2ccc(N3CC(C(C)(C)O)C3)cc12 [Example 179]
EC50 (M-07e cells): < 0.1 µM

IC50 [1]: < 0.1 µM
SMILES: Cc1ccc(-c2noc([C@H]3C[C@@H]3F)n2)cc1NC(=O)c1cnn2ccc(N3CC(O)(C(F)(F)F)C3)cc12 [Example 180]
EC50 (M-07e cells): < 0.1 µM

IC50 [1]: < 0.1 µM
SMILES: Cc1ccc(-c2noc([C@H]3C[C@@H]3F)n2)cc1NC(=O)c1cnn2ccc(N3CC4(C3)CC(C)(O)C4)cc12 [Example 181]
EC50 (M-07e cells): < 0.1 µM

IC50 [1]: < 0.1 µM
SMILES: Cc1ccc(-c2noc([C@H]3C[C@@H]3F)n2)cc1NC(=O)c1cnn2ccc(N3CC(CO)(CCl)C3)cc12 [Example 182]
EC50 (M-07e cells): < 0.1 µM

IC50 [1]: < 0.1 µM
SMILES: Cc1ccc(-c2noc([C@H]3C[C@@H]3F)n2)cc1NC(=O)c1cnn2ccc(N3CC4(CCOC4)C3)cc12 [Example 183]
EC50 (M-07e cells): < 0.1 µM

IC50 [1]: < 0.1 µM
SMILES: Cc1ccc(-c2noc([C@H]3C[C@@H]3F)n2)cc1NC(=O)c1cnn2ccc(N3CCC4(CC3)CC(C)(O)C4)cc12 [Example 184]
EC50 (M-07e cells): < 0.1 µM

IC50 [1]: < 0.1 µM
SMILES: Cc1ccc(-c2noc([C@H]3C[C@@H]3F)n2)cc1NC(=O)c1cnn2ccc(N3CC4(CCN(CC(F)F)C4)C3)cc12 [Example 185]
EC50 (M-07e cells): < 0.1 µM

IC50 [1]: < 0.1 µM
SMILES: COC1CC2(C1)CN(c1ccn3ncc(C(=O)Nc4cc(-c5noc([C@H]6C[C@@H]6F)n5)ccc4C)c3c1)C2 [Example 186]
EC50 (M-07e cells): < 0.1 µM

IC50 [1]: < 0.1 µM
SMILES: Cc1ccc(-c2noc([C@H]3C[C@@H]3F)n2)cc1NC(=O)c1cnn2ccc(N3CC4(C3)CS(=O)(=O)C4)cc12 [Example 187]
EC50 (M-07e cells): < 0.1 µM

IC50 [1]: < 0.1 µM
SMILES: Cc1ccc(-c2noc([C@H]3C[C@@H]3F)n2)cc1NC(=O)c1cnn2ccc(N3CCN(C(=O)OC(C)(C)C)C[C@@H]3C)cc12 [Example 191]
EC50 (M-07e cells): < 0.1 µM

IC50 [1]: < 0.1 µM
SMILES: Cc1ccc(-c2noc([C@H]3C[C@@H]3F)n2)cc1NC(=O)c1cnn2ccc(N3CCNC[C@H]3C)cc12 [Example 195]
EC50 (M-07e cells): 0.1 to 1 µM

IC50 [1]: < 0.1 µM
SMILES: Cc1ccc(-c2noc([C@H]3C[C@@H]3F)n2)cc1NC(=O)c1cnn2ccc(N3CCNC[C@@H]3C)cc12 [Example 196]
EC50 (M-07e cells): < 0.1 µM

IC50 [1]: < 0.1 µM
SMILES: Cc1ccc(-c2noc([C@H]3C[C@@H]3F)n2)cc1NC(=O)c1cnn2ccc(N3CC[C@H](N)C3)cc12 [Example 198]
EC50 (M-07e cells): 0.1 to 1 µM

IC50 [1]: < 0.1 µM
SMILES: Cc1ccc(-c2noc([C@H]3C[C@@H]3F)n2)cc1NC(=O)c1cnn2ccc(N3C[C@H]4C[C@@H]3CO4)cc12 [Example 199]
EC50 (M-07e cells): < 0.1 µM

IC50 [1]: < 0.1 µM
SMILES: Cc1ccc(-c2noc([C@H]3C[C@@H]3F)n2)cc1NC(=O)c1cnn2ccc(N3C[C@@H]4C[C@H]3CO4)cc12 [Example 200]
EC50 (M-07e cells): < 0.1 µM

IC50 [1]: < 0.1 µM
SMILES: Cc1ccc(-c2noc([C@H]3C[C@@H]3F)n2)cc1NC(=O)c1cnn2ccc(N3CCCC4(COC4)C3)cc12 [Example 201]
EC50 (M-07e cells): < 0.1 µM

— patent US20250059174A1, “Pharmaceutical Compounds and Compositions as C-Kit Kinase Inhibitors” (Enanta Pharmaceuticals, Inc., priority 2023, published 2025)
